# Reference: patent publication US8551999B2, “Heterocyclic compound and pharmaceutical composition thereof” (Otsuka Pharmaceutical Co., Ltd., priority 2007, dated 2013)
row,SMILES,melting point
1,"Br.Cn1c(C(=O)N2CCN(Cc3ccc(F)cc3)CC2)cc2cc(Oc3ccc(NC(=O)c4ccc(C(F)(F)F)cc4)cn3)ccc21 [Example 551, N-(6-{2-[4-(4-Fluorobenzyl)piperazine-1-carbonyl]-1-methyl-1H-indol-5-yloxy}pyridin-3-yl)-4-trifluoromethylbenzamide hydrobromide]",254 to 257 °C
2,"Br.Cn1c(C(=O)N2CCN(Cc3ccc(C#N)cc3)CC2)cc2cc(Oc3ccc(NC(=O)c4ccc(Cl)c(Cl)c4)cn3)ccc21 [Example 556, 3,4-Dichloro-N-(6-{2-[4-(4-cyanobenzyl)piperazine-1-carbonyl]-1-methyl-1H-indol-5-yloxy}pyridin-3-yl)benzamide hydrobromide]",267 to 272 °C (dec.)
3,"CS(=O)(=O)O.CS(=O)(=O)O.Cn1c(C(=O)N2CCN(Cc3ccccn3)CC2)cc2cc(Oc3ccc(NC(=O)c4ccc(C(F)(F)F)cc4)cn3)ccc21 [Example 560, N-{6-[1-Methyl-2-(4-pyridin-2-ylmethylpiperazine-1-carbonyl)-1H-indol-5-yloxy]pyridin-3-yl}-4-trifluoromethylbenzamide bismethanesulfonate]",137 to 139 °C
4,"CN(C(=O)c1ccc(C(F)(F)F)cc1)c1ccc(Oc2ccc3c(c2)cc(C(=O)N2CCN(Cc4ccccn4)CC2)n3C)nc1.O=C(O)C(=O)O.O=C(O)C(=O)O [Example 561, N-Methyl-N-{6-[1-methyl-2-(4-pyridin-2-ylmethylpiperazine-1-carbonyl)-1H-indol-5-yloxy]pyridin-3-yl}-4-trifluoromethyl-benzamide dioxalate]",114 to 117 °C
5,"Br.Br.Cn1c(C(=O)N2CCN(Cc3cccnc3)CC2)cc2cc(Oc3ccc(NC(=O)c4ccc(Cl)c(Cl)c4)cn3)ccc21 [Example 563, 3,4-Dichloro-N-{6-[1-methyl-2-(4-pyridin-3-ylmethylpiperazine-1-carbonyl)-1H-indol-5-yloxy]pyridin-3-yl}benzamide dihydrobromide]",249 to 252 °C (dec.)
6,"Br.Br.Cc1nc(Oc2ccc3c(c2)cc(C(=O)N2CCN(Cc4ccncc4)CC2)n3C)ccc1NC(=O)c1ccc(C(F)(F)F)cc1 [Example 565, N-{2-Methyl-6-[1-methyl-2-(4-pyridin-4-ylmethylpiperazine-1-carbonyl)-1H-indol-5-yloxy]pyridin-3-yl}-4-trifluoromethyl-benzamide dihydrobromide]",223 to 225 °C (dec.)
7,"Cc1nc(Oc2ccc3c(c2)cc(C(=O)N2CCN(Cc4ccncc4)CC2)n3C)ccc1N(C)C(=O)c1ccc(C(F)(F)F)cc1.O=C(O)C(=O)O.O=C(O)C(=O)O [Example 566, N-Methyl-N-{2-methyl-6-[1-methyl-2-(4-pyridin-4-ylmethyl-piperazine-1-carbonyl)-1H-indol-5-yloxy]pyridin-3-yl}-4-tri-fluoromethylbenzamide dioxalate]",117 to 120 °C
8,"Br.CC(C)CN1CCN(C(=O)c2cc3cc(Oc4ccc(NC(=O)c5ccc(Cl)c(Cl)c5)cn4)ccc3n2C)CC1 [Example 567, 3,4-Dichloro-N-{6-[2-(4-isobutylpiperazine-1-carbonyl)-1-methyl-1H-indol-5-yloxy]pyridin-3-yl}benzamide hydrobromide]",251 to 254 °C

# More lines, now with the values ahead:
row,melting point,SMILES
1,211 to 215 °C (dec.),"Br.Br.Cn1c(C(=O)N2CCN(Cc3ccncc3)CC2)cc2cc(Oc3ccc(NC(=O)c4ccc(C(F)(F)F)cc4)cn3)ccc21 [Example 550, N-{6-[1-Methyl-2-(4-pyridin-4-ylmethylpiperazine-1-carbonyl)-1H-indol-5-yloxy]pyridin-3-yl}-4-trifluoromethylbenzamide dihydrobromide]"
2,149 to 152 °C,"Cn1c(C(=O)N2CCN(Cc3ccc(C#N)cc3)CC2)cc2cc(Oc3ccc(NC(=O)c4ccc(C(F)(F)F)cc4)cn3)ccc21.O=C(O)/C=C\C(=O)O [Example 552, N-(6-{2-[4-(4-Cyanobenzyl)piperazine-1-carbonyl]-1-methyl-1H-indol-5-yloxy}pyridin-3-yl)-4-trifluoromethylbenzamide maleate]"
3,254 to 260 °C (dec.),"Br.CN(C(=O)c1ccc(C(F)(F)F)cc1)c1ccc(Oc2ccc3c(c2)cc(C(=O)N2CCN(Cc4ccc(C(F)(F)F)cc4)CC2)n3C)nc1 [Example 553, N-Methyl-N-(6-{1-methyl-2-[4-(4-trifluoromethylbenzyl)piperazine-1-carbonyl]-1H-indol-5-yloxy}pyridin-3-yl)-4-trifluoromethyl-benzamide hydrobromide]"
4,204 to 208 °C (dec.),"Br.Br.CN(C(=O)c1ccc(Cl)c(Cl)c1)c1ccc(Oc2ccc3c(c2)cc(C(=O)N2CCN(Cc4ccncc4)CC2)n3C)nc1 [Example 554, 3,4-Dichloro-N-methyl-N-{6-[1-methyl-2-(4-pyridin-4-ylmethyl-piperazine-1-carbonyl)-1H-indol-5-yloxy]pyridin-3-yl}benzamide dihydrobromide]"
5,214 to 219 °C (dec.),"Br.Br.Cn1c(C(=O)N2CCN(Cc3ccncc3)CC2)cc2cc(Oc3ccc(NC(=O)c4ccc(Cl)c(Cl)c4)cn3)ccc21 [Example 555, 3,4-Dichloro-N-{6-[1-methyl-2-(4-pyridin-4-ylmethylpiperazine-1-carbonyl)-1H-indol-5-yloxy]pyridin-3-yl}benzamide dihydrobromide]"
6,201 to 204 °C,"Br.Br.Cn1c(C(=O)N2CCN(Cc3cccnc3)CC2)cc2cc(Oc3ccc(NC(=O)c4ccc(C(F)(F)F)cc4)cn3)ccc21 [Example 558, N-{6-[1-Methyl-2-(4-pyridin-3-ylmethylpiperazine-1-carbonyl)-1H-indol-5-yloxy]pyridin-3-yl}-4-trifluoromethylbenzamide dihydrobromide]"
7,191 to 193 °C,"Br.Br.CN(C(=O)c1ccc(C(F)(F)F)cc1)c1ccc(Oc2ccc3c(c2)cc(C(=O)N2CCN(Cc4cccnc4)CC2)n3C)nc1 [Example 559, N-Methyl-N-{6-[1-methyl-2-(4-pyridin-3-ylmethylpiperazine-1-carbonyl)-1H-indol-5-yloxy]pyridin-3-yl}-4-trifluoromethyl-benzamide dihydrobromide]"
8,163 to 164 °C,"CC(C)CN1CCN(C(=O)c2cc3cc(Oc4ccc(N(C)C(=O)c5ccc(C(F)(F)F)cc5)cn4)ccc3n2C)CC1 [Example 562, N-{6-[2-(4-Isobutylpiperazine-1-carbonyl)-1-methyl-1H-indol-5-yl-oxy]pyridin-3-yl}-N-methyl-4-trifluoromethylbenzamide]"
9,231 to 233 °C (dec.),"Br.Br.Cn1c(C(=O)N2CCN(Cc3ccccn3)CC2)cc2cc(Oc3ccc(NC(=O)c4ccc(Cl)c(Cl)c4)cn3)ccc21 [Example 564, 3,4-Dichloro-N-{6-[1-methyl-2-(4-pyridin-2-ylmethylpiperazine-1-carbonyl)-1H-indol-5-yloxy]pyridin-3-yl}benzamide dihydrobromide]"
10,112 to 115 °C,"Cc1cc(CN2CCN(C(=O)c3cc4cc(Oc5ccc(N(C)C(=O)c6ccc(C(F)(F)F)cc6)cn5)ccc4n3C)CC2)no1.O=C(O)/C=C\C(=O)O [Example 568, N-Methyl-N-(6-{1-methyl-2-[4-(5-methylisoxazol-3-ylmethyl)-piperazine-1-carbonyl]-1H-indol-5-yloxy}pyridin-3-yl)-4-tri-fluoromethylbenzamide maleate]"
